{"source": "patent US20040006103A1", "about": "“Use of chloroquine, hydroxychloroquine and 4 amino-quinolinic derivatives to obtain a drug for the anti retroviral therapy, active towards HIV sensitive strains and towards HIV strains which are resistant to both nucleosidic and non-nucleosidic reverse transcriptase inhibitors and to proteases …” (VALPHARMA S.A., priority 2002, published 2004)", "origin": "cited, not measured here", "key": {"[1]": {"tested_on": "HIV", "conditions": "continuous cultures of cells from the lymphocyte system; Tsai (1990); cited from earlier work"}, "[2]": {"tested_on": "HIV", "conditions": "in vitro, cited from earlier work"}, "[3]": {"tested_on": "HIV", "conditions": "800 mg/day, compared to placebo; Sperber et al. 1997; cited from earlier work"}, "[4]": {"tested_on": "HIV-1", "conditions": "Sperber (1993), cited from earlier work"}, "[5]": {"conditions": "plasmatic concentrations 7 to 15 microM, prolonged over 18-24 months; Lange (1994); cited from earlier work"}, "[6]": {"tested_on": "HIV-1", "conditions": "800 mg/day, 8 weeks, Sperber et al. (1995), cited from earlier work"}, "[7]": {"tested_on": "HIV", "conditions": "cited from earlier work"}, "[8]": {"tested_on": "HIV-1", "conditions": "association hydroxychloroquine (400 mg/day) plus HU plus ddI, 48 weeks, Paton et al. 2002, cited from earlier work"}}, "data": [{"smiles": "CCN(CC)CCCC(C)Nc1ccnc2cc(Cl)ccc12", "note": "(centres unmarked) [CQ, chloroquine]", "values": [{"measurement": "inhibition of the HIV replicative cycle", "setting": "[1]", "result": "inhibits the HIV replicative cycle"}]}, {"smiles": "CCN(CCO)CCCC(C)Nc1ccnc2cc(Cl)ccc12", "note": "(centres unmarked) [HCQ, hydroxychloroquine]", "values": [{"measurement": "effect on inhibition of the HIV replication when added to ddI plus HU", "setting": "[2]; Boelaert et al. (1999)", "result": "extra effect"}, {"measurement": "effect when added to the association AZT plus HU", "setting": "[2]; Boelaert et al. (2001)", "result": "additional effect"}, {"measurement": "plasmatic HIV-RNA", "setting": "[3]", "result": "significant reduction"}, {"measurement": "production of infecting viral particles", "setting": "[4]; CEM cells used as target", "result": "almost completely inhibits"}, {"measurement": "inhibition of HIV-1 replication", "setting": "[4]; PBMC, U-937, CEM", "result": "> 75", "unit": "%"}, {"measurement": "toxic effect in cell cultures", "setting": "[4]; concentration suitable for inhibit viral replication", "result": "no toxic effect was found"}, {"measurement": "retinopathy", "setting": "[5]", "result": "rarely induced retinopathy"}, {"measurement": "quantity of HIV-RNA", "setting": "[6]; asymptomatic HIV-1 positive patients", "result": "significantly decreased"}, {"measurement": "negative events", "setting": "[6]", "result": "No negative event was observed"}, {"measurement": "negative events", "setting": "[7]; 16 weeks, hydroxychloroquine 800 mg/day, AZT 500 mg/day", "result": "no negative events were observed"}, {"measurement": "patients with an increase of plasmatic viremia", "setting": "[7]; at the 8th and at the 16th week", "result": "nobody"}, {"measurement": "decrement of plasmatic HIV-RNA", "setting": "[8]; 22 patients", "result": 1.3, "unit": "logs"}, {"measurement": "tolerability", "setting": "[8]", "result": "well tolerated"}]}]}
